Reference: ChEMBL document CHEMBL4507281, “Data for DCP probe BI-4394” (2021)

Key:
Settings in all cases: Compound concentration 10.0 uM
[1] = target: 5-hydroxytryptamine receptor 1A (Homo sapiens) (UniProt P08908)
[2] = target: Histamine H2 receptor (Homo sapiens) (UniProt P25021)
[3] = target: Alpha-2A adrenergic receptor (Homo sapiens) (UniProt P08913)
[4] = target: Casein kinase I isoform gamma-2 (Homo sapiens) (UniProt P78368)
[5] = target: Receptor-type tyrosine-protein kinase FLT3 (Homo sapiens) (UniProt P36888)
[6] = target: Mast/stem cell growth factor receptor Kit (Homo sapiens) (UniProt P10721)
[7] = target: Tyrosine-protein kinase Lck (Homo sapiens) (UniProt P06239)
[8] = target: Dual specificity mitogen-activated protein kinase kinase 1 (Homo sapiens) (UniProt Q02750)
[9] = target: Mitogen-activated protein kinase 1 (Homo sapiens) (UniProt P28482)
[10] = target: Mitogen-activated protein kinase 8 (Homo sapiens) (UniProt P45983)
[11] = target: Serine/threonine-protein kinase MARK2 (Homo sapiens) (UniProt Q7KZI7)
[12] = target: Platelet-derived growth factor receptor beta (Homo sapiens) (UniProt P09619)
[13] = target: T1, Phosphorylase b kinase regulatory subunit alpha, liver isoform (Homo sapiens) (UniProt P46019)
T1 sequence (whole entry): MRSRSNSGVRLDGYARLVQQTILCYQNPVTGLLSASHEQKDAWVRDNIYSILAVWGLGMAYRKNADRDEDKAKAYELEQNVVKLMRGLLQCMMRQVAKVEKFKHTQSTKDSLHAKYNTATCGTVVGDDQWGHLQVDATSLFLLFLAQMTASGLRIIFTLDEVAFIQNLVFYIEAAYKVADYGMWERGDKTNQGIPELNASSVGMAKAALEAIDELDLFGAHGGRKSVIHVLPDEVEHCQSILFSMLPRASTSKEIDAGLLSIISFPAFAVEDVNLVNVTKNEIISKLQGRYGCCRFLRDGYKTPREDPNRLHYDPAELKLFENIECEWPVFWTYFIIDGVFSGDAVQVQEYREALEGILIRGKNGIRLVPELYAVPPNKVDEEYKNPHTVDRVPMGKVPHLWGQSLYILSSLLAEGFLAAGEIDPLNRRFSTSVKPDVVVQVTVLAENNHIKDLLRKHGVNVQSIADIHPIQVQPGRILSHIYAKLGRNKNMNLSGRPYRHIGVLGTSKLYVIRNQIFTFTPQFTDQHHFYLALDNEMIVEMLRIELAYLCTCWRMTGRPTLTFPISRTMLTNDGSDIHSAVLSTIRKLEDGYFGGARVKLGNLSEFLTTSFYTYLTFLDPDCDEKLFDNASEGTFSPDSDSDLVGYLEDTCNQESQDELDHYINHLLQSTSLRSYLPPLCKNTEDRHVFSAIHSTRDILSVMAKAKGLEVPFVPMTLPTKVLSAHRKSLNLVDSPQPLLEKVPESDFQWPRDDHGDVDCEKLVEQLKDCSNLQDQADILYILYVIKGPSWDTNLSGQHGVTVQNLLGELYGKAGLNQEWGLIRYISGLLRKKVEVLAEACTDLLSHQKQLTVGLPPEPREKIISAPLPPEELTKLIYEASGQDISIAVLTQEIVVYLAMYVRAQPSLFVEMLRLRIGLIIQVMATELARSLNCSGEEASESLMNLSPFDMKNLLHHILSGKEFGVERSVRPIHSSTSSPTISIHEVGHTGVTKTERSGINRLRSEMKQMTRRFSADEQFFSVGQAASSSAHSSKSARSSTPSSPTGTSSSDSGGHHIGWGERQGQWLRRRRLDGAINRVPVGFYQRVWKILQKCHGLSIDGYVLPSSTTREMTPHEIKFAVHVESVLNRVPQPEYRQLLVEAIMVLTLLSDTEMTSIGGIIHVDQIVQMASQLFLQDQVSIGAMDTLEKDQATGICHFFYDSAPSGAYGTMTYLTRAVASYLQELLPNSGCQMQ

[14] = target: Serine/threonine-protein kinase pim-1 (Homo sapiens) (UniProt P11309)
[15] = target: cAMP-dependent protein kinase catalytic subunit alpha (Homo sapiens) (UniProt P17612)
[16] = target: Rho-associated protein kinase 1 (Homo sapiens) (UniProt Q13464)
[17] = target: Ribosomal protein S6 kinase alpha-3 (Homo sapiens) (UniProt P51812)
[18] = target: Ribosomal protein S6 kinase beta-1 (Homo sapiens) (UniProt P23443)
[19] = target: Proto-oncogene tyrosine-protein kinase Src (Homo sapiens) (UniProt P12931)

Sequence of Casein kinase I isoform gamma-2 (Homo sapiens) (P78368 whole entry, looked up, canonical isoform): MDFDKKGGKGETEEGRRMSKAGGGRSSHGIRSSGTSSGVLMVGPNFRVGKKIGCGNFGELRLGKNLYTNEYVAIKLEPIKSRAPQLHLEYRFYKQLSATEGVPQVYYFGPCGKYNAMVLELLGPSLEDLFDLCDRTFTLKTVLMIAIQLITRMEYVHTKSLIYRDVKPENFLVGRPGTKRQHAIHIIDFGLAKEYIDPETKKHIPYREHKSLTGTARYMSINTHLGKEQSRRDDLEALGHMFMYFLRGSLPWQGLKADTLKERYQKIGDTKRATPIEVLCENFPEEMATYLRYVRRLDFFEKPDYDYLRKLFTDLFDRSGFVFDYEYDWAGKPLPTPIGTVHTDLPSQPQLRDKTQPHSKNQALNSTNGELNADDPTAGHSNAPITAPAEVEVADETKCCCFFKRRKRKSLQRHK
Sequence of Mitogen-activated protein kinase 8 (Homo sapiens) (P45983 whole entry): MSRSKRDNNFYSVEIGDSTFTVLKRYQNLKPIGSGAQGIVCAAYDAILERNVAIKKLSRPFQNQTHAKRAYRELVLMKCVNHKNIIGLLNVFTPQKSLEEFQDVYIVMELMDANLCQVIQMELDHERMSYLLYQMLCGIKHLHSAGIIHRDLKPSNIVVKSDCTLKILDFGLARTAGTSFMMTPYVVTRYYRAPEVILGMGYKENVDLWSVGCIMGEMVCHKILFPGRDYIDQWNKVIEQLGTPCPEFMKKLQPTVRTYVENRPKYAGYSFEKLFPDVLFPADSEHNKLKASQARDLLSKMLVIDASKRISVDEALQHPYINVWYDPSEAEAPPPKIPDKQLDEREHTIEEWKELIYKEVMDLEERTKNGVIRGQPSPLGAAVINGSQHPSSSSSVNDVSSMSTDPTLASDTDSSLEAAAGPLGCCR
Sequence of Dual specificity mitogen-activated protein kinase kinase 1 (Homo sapiens) (Q02750 whole entry): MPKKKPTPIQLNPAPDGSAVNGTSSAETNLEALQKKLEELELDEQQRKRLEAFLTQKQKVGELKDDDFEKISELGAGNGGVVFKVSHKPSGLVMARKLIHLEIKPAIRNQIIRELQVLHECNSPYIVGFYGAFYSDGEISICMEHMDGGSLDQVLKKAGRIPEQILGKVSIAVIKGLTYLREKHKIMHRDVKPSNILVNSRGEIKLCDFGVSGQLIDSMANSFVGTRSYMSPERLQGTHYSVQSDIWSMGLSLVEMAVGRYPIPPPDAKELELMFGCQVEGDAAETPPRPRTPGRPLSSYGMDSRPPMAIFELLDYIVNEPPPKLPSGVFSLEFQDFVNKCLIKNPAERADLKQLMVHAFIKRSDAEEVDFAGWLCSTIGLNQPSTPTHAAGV
Sequence of Rho-associated protein kinase 1 (Homo sapiens) (Q13464 2-1354 limits assumed): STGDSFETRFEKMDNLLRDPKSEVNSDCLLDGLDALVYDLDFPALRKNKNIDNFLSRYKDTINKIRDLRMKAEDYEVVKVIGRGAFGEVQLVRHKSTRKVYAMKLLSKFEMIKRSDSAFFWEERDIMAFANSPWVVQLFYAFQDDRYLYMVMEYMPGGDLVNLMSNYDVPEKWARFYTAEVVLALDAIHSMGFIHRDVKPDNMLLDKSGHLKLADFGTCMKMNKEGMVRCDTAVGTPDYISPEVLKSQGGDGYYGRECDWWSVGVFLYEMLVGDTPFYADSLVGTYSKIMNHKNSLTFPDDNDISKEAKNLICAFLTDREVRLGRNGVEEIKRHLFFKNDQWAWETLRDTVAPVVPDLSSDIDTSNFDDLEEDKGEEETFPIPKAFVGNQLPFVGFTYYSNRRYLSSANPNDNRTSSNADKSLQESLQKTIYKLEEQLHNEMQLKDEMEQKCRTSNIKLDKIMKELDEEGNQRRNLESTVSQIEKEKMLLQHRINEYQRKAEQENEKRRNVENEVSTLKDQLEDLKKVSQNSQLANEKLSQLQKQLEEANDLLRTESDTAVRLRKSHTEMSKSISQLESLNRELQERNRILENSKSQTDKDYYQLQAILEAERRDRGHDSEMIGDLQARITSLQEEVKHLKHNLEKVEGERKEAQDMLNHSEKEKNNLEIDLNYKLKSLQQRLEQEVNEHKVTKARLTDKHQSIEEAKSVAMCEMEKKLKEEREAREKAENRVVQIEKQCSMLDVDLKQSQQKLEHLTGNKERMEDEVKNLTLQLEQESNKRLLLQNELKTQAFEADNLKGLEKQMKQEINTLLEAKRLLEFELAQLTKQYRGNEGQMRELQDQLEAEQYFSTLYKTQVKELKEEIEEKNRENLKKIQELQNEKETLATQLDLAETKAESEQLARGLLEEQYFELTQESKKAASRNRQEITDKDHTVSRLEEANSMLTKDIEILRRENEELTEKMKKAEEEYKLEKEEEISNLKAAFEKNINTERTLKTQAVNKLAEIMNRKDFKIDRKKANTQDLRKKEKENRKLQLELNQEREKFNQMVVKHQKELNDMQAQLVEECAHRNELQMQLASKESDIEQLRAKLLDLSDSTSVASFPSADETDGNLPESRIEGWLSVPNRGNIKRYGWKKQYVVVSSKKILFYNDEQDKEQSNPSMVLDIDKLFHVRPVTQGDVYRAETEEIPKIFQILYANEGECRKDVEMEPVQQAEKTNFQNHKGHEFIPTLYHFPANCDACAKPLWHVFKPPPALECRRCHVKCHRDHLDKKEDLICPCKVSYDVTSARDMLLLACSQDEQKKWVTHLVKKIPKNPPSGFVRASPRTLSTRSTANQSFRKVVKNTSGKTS
Sequence of Receptor-type tyrosine-protein kinase FLT3 (Homo sapiens) (P36888 whole entry): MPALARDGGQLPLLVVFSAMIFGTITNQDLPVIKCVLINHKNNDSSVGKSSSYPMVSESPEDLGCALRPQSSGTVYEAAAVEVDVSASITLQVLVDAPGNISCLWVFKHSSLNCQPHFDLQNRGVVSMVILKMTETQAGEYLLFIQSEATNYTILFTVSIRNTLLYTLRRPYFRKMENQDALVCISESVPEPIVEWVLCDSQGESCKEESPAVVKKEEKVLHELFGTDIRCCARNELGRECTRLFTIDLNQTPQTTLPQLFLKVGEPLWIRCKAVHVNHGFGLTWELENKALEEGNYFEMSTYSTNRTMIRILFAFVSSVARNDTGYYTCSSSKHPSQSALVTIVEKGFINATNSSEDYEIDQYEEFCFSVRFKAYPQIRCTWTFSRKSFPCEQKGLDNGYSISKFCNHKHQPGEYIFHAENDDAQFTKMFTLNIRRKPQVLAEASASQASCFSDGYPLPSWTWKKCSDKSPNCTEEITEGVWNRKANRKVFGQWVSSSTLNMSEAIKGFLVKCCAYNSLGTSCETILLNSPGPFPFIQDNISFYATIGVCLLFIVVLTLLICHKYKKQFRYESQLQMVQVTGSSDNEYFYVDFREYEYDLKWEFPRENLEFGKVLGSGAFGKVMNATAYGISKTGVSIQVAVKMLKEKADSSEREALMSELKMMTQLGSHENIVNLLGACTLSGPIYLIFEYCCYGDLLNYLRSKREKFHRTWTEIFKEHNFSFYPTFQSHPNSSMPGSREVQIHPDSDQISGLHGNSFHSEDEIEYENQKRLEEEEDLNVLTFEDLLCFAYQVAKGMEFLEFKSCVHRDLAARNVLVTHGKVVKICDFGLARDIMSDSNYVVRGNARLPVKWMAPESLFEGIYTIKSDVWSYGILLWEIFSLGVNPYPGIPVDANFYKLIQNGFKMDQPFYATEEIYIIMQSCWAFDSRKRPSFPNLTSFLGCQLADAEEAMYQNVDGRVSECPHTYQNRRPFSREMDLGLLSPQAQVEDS
Sequence of Mast/stem cell growth factor receptor Kit (Homo sapiens) (P10721 whole entry): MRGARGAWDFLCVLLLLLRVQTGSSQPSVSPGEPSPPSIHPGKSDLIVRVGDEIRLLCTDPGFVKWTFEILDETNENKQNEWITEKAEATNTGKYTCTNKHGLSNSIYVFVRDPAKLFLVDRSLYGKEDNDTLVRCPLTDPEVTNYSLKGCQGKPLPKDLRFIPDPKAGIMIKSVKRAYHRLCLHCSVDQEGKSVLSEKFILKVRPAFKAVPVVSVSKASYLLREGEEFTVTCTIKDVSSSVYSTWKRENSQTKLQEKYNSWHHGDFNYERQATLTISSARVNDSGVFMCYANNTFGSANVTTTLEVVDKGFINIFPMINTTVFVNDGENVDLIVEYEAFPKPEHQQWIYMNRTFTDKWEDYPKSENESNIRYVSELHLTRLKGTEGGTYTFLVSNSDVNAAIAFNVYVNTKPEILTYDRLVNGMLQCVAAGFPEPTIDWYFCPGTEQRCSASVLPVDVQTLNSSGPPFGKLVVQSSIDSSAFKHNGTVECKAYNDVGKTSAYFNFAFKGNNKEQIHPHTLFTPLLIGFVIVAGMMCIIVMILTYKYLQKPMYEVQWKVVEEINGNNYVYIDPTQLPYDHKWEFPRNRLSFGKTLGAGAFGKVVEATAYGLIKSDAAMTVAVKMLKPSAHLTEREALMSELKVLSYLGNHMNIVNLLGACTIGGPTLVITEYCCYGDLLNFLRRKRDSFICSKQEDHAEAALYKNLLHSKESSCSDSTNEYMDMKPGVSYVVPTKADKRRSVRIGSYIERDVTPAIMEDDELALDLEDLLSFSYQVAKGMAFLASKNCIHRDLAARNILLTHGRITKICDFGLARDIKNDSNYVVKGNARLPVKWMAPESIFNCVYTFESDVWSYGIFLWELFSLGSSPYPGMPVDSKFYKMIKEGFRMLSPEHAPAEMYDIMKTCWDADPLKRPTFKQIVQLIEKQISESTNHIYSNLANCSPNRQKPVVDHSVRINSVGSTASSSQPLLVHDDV
Sequence of Histamine H2 receptor (Homo sapiens) (P25021 whole entry): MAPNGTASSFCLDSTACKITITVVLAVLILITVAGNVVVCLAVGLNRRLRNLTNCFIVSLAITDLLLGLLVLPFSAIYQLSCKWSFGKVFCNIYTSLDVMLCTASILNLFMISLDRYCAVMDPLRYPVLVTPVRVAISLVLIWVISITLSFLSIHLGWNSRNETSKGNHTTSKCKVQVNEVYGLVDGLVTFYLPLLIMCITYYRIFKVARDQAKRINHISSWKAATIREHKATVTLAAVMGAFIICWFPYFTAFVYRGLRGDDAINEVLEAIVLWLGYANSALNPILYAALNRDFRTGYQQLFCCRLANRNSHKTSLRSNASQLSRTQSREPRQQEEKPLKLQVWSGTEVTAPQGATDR

Question: Which results are given for Cn1nc(C(=O)NCc2ccc(C(=O)O)cc2)cc1-c1ccc2[nH]ccc2c1 [BI 4395]?
Answer: inhibition [1]: 22.7%; inhibition [2]: 8.57%

Question: For CCOC(=O)c1cc2cc(-c3cc(C(=O)NCc4ccc(C(=O)O)cc4)nn3C)ccc2[nH]1 [BI 4394], which inhibition [3] is on record?
Answer: 12.3%

Question: What about the residual activity [4] of the same molecule?
Answer: 61%

Question: And the residual activity [5]?
Answer: 64%

Question: And the residual activity [6]?
Answer: 77%

Question: And the residual activity [7]?
Answer: 68%

Question: And the residual activity [8]?
Answer: 78%

Question: And the residual activity [9]?
Answer: 84%

Question: And the residual activity [10]?
Answer: 87%

Question: And the residual activity [11]?
Answer: 107%

Question: And the residual activity [12]?
Answer: 96%

Question: What about the residual activity [13] of the same molecule?
Answer: 82%

Question: What about the residual activity [14] of the same molecule?
Answer: 14%

Question: And the residual activity [15]?
Answer: 10%

Question: What about the residual activity [16] of the same molecule?
Answer: 97%

Question: And the residual activity [17]?
Answer: 5%

Question: And the residual activity [18]?
Answer: 89%

Question: What about the residual activity [19] of the same molecule?
Answer: 25%
